Measurements as given in patent publication US9168286B2, “Methods and compositions for use in treatment of patients with autoantibody positive disease” (Human Genome Sciences, Inc., priority 2005, dated 2015).

Experiments:
subjects with SLE [1] = conditions: human, in vivo
Protocol: (§2) 449 subjects with SLE by ACR criteria (Tan et al., Arthritis Rheum. 25:1271-7, (1982); and Hochberg et al., Arthritis Rheum. 40:1725, (1997)), with a history of measurable autoantibodies and SELENA SLEDAI score ≧4 at screening were dosed.
(§3) Subjects who completed the 52-week treatment period were given the option to continue the study for a 24-week extension period. […] B-cells were analyzed every 1-2 months by 4-color FACS (CD19, CD20, CD27, CD69, CD38, CD138 and CD45). Serum autoantibody, including anti-dsDNA Ab, Ig isotypes, total protein, and albumin levels were obtained at the same visits. The likelihood ratio chi-squared, Wilcoxon test or t-test was used to analyze the changes in the biological markers.

subjects with SLE [2] = assay: Phase 2 clinical trial of belimumab in SLE with 24-week extension and continuation trial: disease activity (SELENA SLEDAI, SLE Flare Index, PGA, BILAG, SF-36); assay type: in vivo, human
Protocol: Further, response rates among the treatment groups in the trial were also analyzed using a combined response endpoint (row 1), which combined a measure of global disease activity as measured by the SS score, with a measure of a patient's overall condition as assessed by the PGA disease activity index and a measure of disease in specific organ systems as measured by the BILAG scale.
Serum autoantibodies, Ig isotypes and complement (C3, C4) were measured at 1-3 month intervals. […]

subjects with SLE [3] = assay: Phase 2 clinical trial of belimumab in SLE: safety
Protocol: as §2, §3

subjects with RA [4] = assay: Phase 2 clinical trial of belimumab in rheumatoid arthritis: biomarkers; assay type: in vivo, human
Excerpt: (§1) ACR20 response increased to approximately 40% at Week 48.

subjects with RA [5] = assay: Phase 2 clinical trial of belimumab in rheumatoid arthritis: safety; assay type: in vivo, human
Excerpt: as §1

subjects with RA [6] = assay: Phase 2 clinical trial of belimumab in rheumatoid arthritis: ACR20 response; assay type: in vivo, human
Excerpt: as §1

[7] = Phase 2 clinical trial of belimumab in rheumatoid arthritis: serum concentrations; conditions: human, in vivo
Excerpt: as §1

[8] = ANA+ subjects, week 52, 1.0 mg/kg, N = 78
[9] = ANA+ subjects, week 52, 4.0 mg/kg, N = 79
[10] = ANA+ subjects, week 52, 10.0 mg/kg, N = 78
[11] = continued treatment in the extension period

## belimumab: an antibody that neutralizes Neutrokine-alpha protein
Subjects with SLE [1]
  safety, including adverse events (AE), AE severity, infections or lab toxicity: No clinically significant differences
Subjects with SLE [2]; 1, 4, 10 mg/kg
  dose response in efficacy: no dose response in efficacy
Subjects with SLE [2]; ANA+ subjects vs ANA+ placebo, as early as week 4, also weeks 8, 16, 48 (p<0.05), 52 (p<0.01)
  mean percent change from baseline PGA: significant improvement
Subjects with SLE [2]; ANA+ subjects vs ANA+ placebo, weeks 12, 24, 48, 52, p<0.05
  mean SF-36 Physical Component Score (SF-36 PCS): significant improvements
Subjects with SLE [2]; ANA+ subjects, as early as week 8, p<0.05 over weeks 8-12 and 32-40
  frequency of increase in prednisone from ≦[…] to >[…]: significant reduction
Subjects with SLE [2]; ANA+ subjects, p=0.0058
  combined response endpoint (SS, PGA, BILAG): significant response
Subjects with SLE [2]; [8]
  % of subjects with no worsening by PGA (<0.3 point increase from baseline): (89.7%)
  % of subjects with reduction in SELENA SLEDAI ≧4: (52.6%)
  subjects with no worsening by PGA (<0.3 point increase from baseline), number: 70
  subjects with reduction in SELENA SLEDAI ≧4, number: 41
Subjects with SLE [2]; [9]
  % of subjects with no worsening by PGA (<0.3 point increase from baseline): (88.6%)
  % of subjects with reduction in SELENA SLEDAI ≧4: (48.1%)
  subjects with no worsening by PGA (<0.3 point increase from baseline), number: 70
  subjects with reduction in SELENA SLEDAI ≧4, number: 38
Subjects with SLE [2]; [10]
  % of subjects with no worsening by PGA (<0.3 point increase from baseline): (92.3%)
  % of subjects with reduction in SELENA SLEDAI ≧4: (47.4%)
  subjects with no worsening by PGA (<0.3 point increase from baseline), number: 72
  subjects with reduction in SELENA SLEDAI ≧4, number: 37
Subjects with SLE [2]; ANA+ subjects, week 52, All Active, N = 235, P 0.0027 vs placebo
  subjects with no worsening by PGA (<0.3 point increase from baseline), number: 212
Subjects with SLE [2]; ANA+ subjects, week 52, All Active, N = 235, P 0.0027 vs placebo (76.7%)
  % of subjects with no worsening by PGA (<0.3 point increase from baseline): (90.2%)
Subjects with SLE [2]; ANA+ subjects, week 52, All Active, N = 235, P 0.1169 vs placebo
  subjects with reduction in SELENA SLEDAI ≧4, number: 116
Subjects with SLE [2]; ANA+ subjects, week 52, p<0.008
  increases in BILAG organ domain score: musculoskeletal: fewer increases in score
Subjects with SLE [2]; ANA+ subjects, week 52, p<0.038
  increases in BILAG organ domain score: neurological: fewer increases in score
Subjects with SLE [2]; ANA+ subjects, week 52, p<0.15
  increases in BILAG organ domain score: general: trend toward fewer increases in score
  increases in BILAG organ domain score: renal: trend toward fewer increases in score
Subjects with SLE [2]; ANA+ subjects, week 52, p=0.0435
  reduction in SELENA SLEDAI (SS) score: 29%
Subjects with SLE [2]; ANA+ subjects, week 52, p=0.060
  increases in BILAG organ domain score: cardiovascular & respiratory: trend toward fewer increases in score
Subjects with SLE [2]; belimumab-treated, placebo ~15%
  subjects with increases of prednisone to >[…]: ~7%
Subjects with SLE [2]; by week 16 (p=0.016) through week 52 (p<0.002), all active vs. placebo
  PGA score: improved
Subjects with SLE [2]; lupus patients, IV days 0, 14, 28 then every four weeks until week 52
  dosage of prednisone necessary to ameliorate disease manifestations: effective in reducing the dosage of the corticosteroid prednisone
Subjects with SLE [2]; patients with ANA titer 1:80 or greater and/or ≧30 IU/mL anti-dsDNA, IV days 0, 14, 28 then every four weeks until week 52
  symptoms associated with lupus: significantly ameliorated symptoms associated with lupus
Subjects with SLE [2]; seropositive subjects (n=175) who completed 128 weeks
  combined response rate: 63%
Subjects with SLE [2]; seropositive subjects (n=321), all belimumab treatment groups combined, week 56, placebo 35%, p<0.05
  combined response rate: 49%
Subjects with SLE [2]; seropositive subjects, fifth six-month interval
  SLE flare rate (SFI), percent of subjects with at least one flare: 33%
Subjects with SLE [2]; seropositive subjects, first six-month interval, placebo 76%
  SLE flare rate (SFI), percent of subjects with at least one flare: 72%
Subjects with SLE [2]; seropositive subjects, fourth six-month interval
  SLE flare rate (SFI), percent of subjects with at least one flare: 30%
Subjects with SLE [2]; seropositive subjects, second six-month interval, placebo 73%
  SLE flare rate (SFI), percent of subjects with at least one flare: 61%
Subjects with SLE [2]; seropositive subjects, third six-month interval
  SLE flare rate (SFI), percent of subjects with at least one flare: 57%
Subjects with SLE [2]; seropositive subjects, weeks 76-128 of continuous therapy (ITT analysis)
  combined response rate: 55%
Subjects with SLE [2]; subjects with baseline Anti-dsDNA autoantibodies, week 52
  combined response rate: 47%
Subjects with SLE [2]; subjects with baseline Anti-dsDNA autoantibodies, week 128
  combined response rate: 53%
Subjects with SLE [2]; subjects with baseline RNP autoantibodies, week 52
  combined response rate: 42%
Subjects with SLE [2]; subjects with baseline RNP autoantibodies, week 128
  combined response rate: 52%
Subjects with SLE [2]; subjects with baseline Ro autoantibodies, week 52
  combined response rate: 41%
Subjects with SLE [2]; subjects with baseline Ro autoantibodies, week 128
  combined response rate: 51%
Subjects with SLE [2]; subjects with baseline aCl autoantibodies, week 52
  combined response rate: 51%
Subjects with SLE [2]; subjects with baseline aCl autoantibodies, week 128
  combined response rate: 51%
Subjects with SLE [2]; vs. placebo
  composite numerical BILAG scores: no significant differences
Subjects with SLE [2]; week 52, placebo 19%, p=0.0152
  percent of seropositive subjects with new 1A or 2B BILAG flares: 9%
Subjects with SLE [2]; week 52, placebo 23%, p=0.0027
  seropositive subjects with worsening PGA scores: 10%
Subjects with SLE [2]; weeks 76-128
  percent of seropositive subjects with SS>4 point improvement: 58-60%
Subjects with SLE [2]; weeks 96-128
  percent of seropositive subjects with new 1A or 2B BILAG flares: 6-7%
  seropositive subjects with worsening PGA scores: 7-9%
Subjects with SLE [3]; 1 mg/kg
  Immunogenicity to belimumab, number of subjects: 1 subject
Subjects with SLE [3]; human, in vivo
  Infusion reactions: rare, with only 1 severe event reported
  tolerability: well tolerated
Subjects with SLE [3]; placebo 8%, p<0.05
  subjects with pleurisy: 3.3%
Subjects with RA [4]; [11]
  Effects on biomarkers: increased or were sustained
Subjects with RA [4]; human, in vivo
  CD20+ B-cells: statistically significant reductions
  RF (rheumatoid factor): statistically significant reductions
  activated B-cells: statistically significant reductions
  memory cells: increased within first month of treatment and slowly declined with continued treatment
  naïve B-cells: statistically significant reductions
Subjects with RA [5]; 1, 4, 10 mg/kg, 24 weeks
  tolerability: well tolerated at all doses
Subjects with RA [5]; [11]
  tolerability: well tolerated
Subjects with RA [6]; 1 mg/kg treatment group vs placebo, 24 weeks, p=0.0097
  ACR20 response: statistically superior
Subjects with RA [6]; 1, 4, 10 mg/kg
  dose-response relationship for efficacy, safety, biomarker effects: not apparent
Subjects with RA [6]; Week 48 (extension period)
  ACR20 response: approximately 40%
Subjects with RA [6]; all active treatment groups combined vs placebo, 24 weeks, p=0.0213
  ACR20 response: statistically superior
Subjects with RA [6]; patients with DAS28 >5.1, no previous anti-TNF therapy, and/or rheumatoid factor, IV days 0, 14, 28 then every four weeks until week 24
  symptoms associated with rheumatoid arthritis, by subgroup: more likely to ameliorate symptoms associated with rheumatoid arthritis
Subjects with RA [6]; subjects with autoantibody positive disease (RF or anti-CCP) or positive for CRP at baseline
  ACR20 responses in subgroups: improved ACR20 responses
[7]
  Serum concentrations: within the range expected based on the Phase 1 data
  effect of concomitant medications (methotrexate, leflunomide or hydroxychloroquine) on belimumab exposures: no significant effect
